Results from patent US20080200454A1, “CARBON-LINKED TETRAHYDRO-PYRAZOLO-PYRIDINE MODULATORS OF CATHEPSIN S” (priority 2007, published 2008).
Where two headings read alike, the source gives them in different places.

Molecular target: Recombinant human cathepsin S (CatS) (Homo sapiens, UniProt P25774)
Experiment: Recombinant human cathepsin S (CatS) inhibition assay, fluorogenic substrate Z-Valine-Valine-Arginine-AMC;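 also: Baculovirus-expressed CatS in pH 5.0 sodium acetate buffer with DTT and NaCl, fluorescence read each minute over 20 min, inhibition derived from rate slope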
Procedure: Recombinant human cathepsin S (CatS) was expressed in the baculovirus system and purified in one step with a thiopropyl-sepharose column. 10-L yielded ˜700 mg of CatS and N-terminal sequencing confirmed identity. The assay is run in 150 mM sodium acetate pH 5.0 containing 1.5 mM DTT and 150 mM NaCl. […] Using 2 ng/well of CatS, the production of product is linear and yields-7-fold signal after 20 min with only 20% loss of substrate. Measurements are taken every min for 20 min. The rate is calculated from the slope of the increase in fluorescence and the percent inhibition is calculated from this.

Sequence of Recombinant human cathepsin S (CatS) (P25774 115-331): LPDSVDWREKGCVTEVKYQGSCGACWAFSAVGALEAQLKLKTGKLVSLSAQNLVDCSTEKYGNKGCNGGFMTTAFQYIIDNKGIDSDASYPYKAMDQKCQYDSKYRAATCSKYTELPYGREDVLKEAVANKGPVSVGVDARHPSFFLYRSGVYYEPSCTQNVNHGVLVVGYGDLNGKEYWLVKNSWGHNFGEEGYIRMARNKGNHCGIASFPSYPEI

Row | Structure (SMILES) | IC50 [µM] | IC50 (CatS IC50) [µM]
1 | NCC(=O)N1CCc2c(c(-c3ccc(Cl)c(C#Cc4ccc(CNCc5ccc(Cl)cc5)cc4)c3)nn2CCCN2CCOCC2)C1 [Example 154, 2-[3-(4-Chloro-3-{[4-({[(4-chlorophenyl)methyl]amino}methyl)phenyl]ethynyl}phenyl)-1-(3-morpholin-4-ylpropyl)-1,4,6,7-tetrahydro-5H-pyrazolo[4,3-c]pyridin-5-yl]-2-oxoethanamine] | 0.26 | –
2 | CNC(=O)N1CCc2c(c(-c3ccc(Cl)c(C#Cc4ccc(CNCc5ccc(Cl)cc5)cc4)c3)nn2CCCN2CCOCC2)C1 [Example 155, 3-(4-Chloro-3-{[4-({[(4-chlorophenyl)methyl]amino}methyl)phenyl]ethynyl}phenyl)-N-methyl-1-(3-morpholin-4-ylpropyl)-1,4,6,7-tetrahydro-5H-pyrazolo[4,3-c]pyridine-5-carboxamide] | 0.79 | –
3 | C[C@H]1COC[C@H](C)N1CCCn1nc(-c2ccc(Cl)c(C#Cc3ccc(CNCc4ccc(Cl)cc4)cc3)c2)c2c1CCN(C(=O)C(N)=O)C2 [Example 157, 2-(3-{4-Chloro-3-[(4-{[(4-chlorobenzyl)amino]methyl}phenyl)ethynyl]phenyl}-1-{3-[(3S,5S)-3,5-dimethylmorpholin-4-yl]propyl}-1,4,6,7-tetrahydro-5H-pyrazolo[4,3-c]pyridin-5-yl)-2-oxoacetamide] | – | 0.04
4 | NC(=O)N1CCc2c(c(-c3ccc(Cl)c(C#Cc4ccc(C(=O)N5CCCC5)cc4)c3)nn2CCCN2CCSCC2)C1 [Example 164, 3-(4-Chloro-3-{[4-(pyrrolidin-1-ylcarbonyl)phenyl]ethynyl}phenyl)-1-(3-thiomorpholin-4-ylpropyl)-1,4,6,7-tetrahydro-5H-pyrazolo[4,3-c]pyridine-5-carboxamide] | – | 0.73
5 | C[C@H]1COCCN1CCCn1nc(-c2ccc(Cl)c(C#Cc3ccc(Cl)c(C(=O)NCCN4CCOCC4)c3)c2)c2c1CCN(C(=O)C(N)=O)C2 [Example 168, 5-{[5-(5-[Amino(oxo)acetyl]-1-{3-[(3S)-3-methylmorpholin-4-yl]propyl}-4,5,6,7-tetrahydro-1H-pyrazolo[4,3-c]pyridin-3-yl)-2-chlorophenyl]ethynyl}-2-chloro-N-(2-morpholin-4-ylethyl)benzamide] | – | 0.03
6 | C[C@H]1COCCN1CCCn1nc(-c2ccc(Cl)c(C#Cc3ccc(C(=O)NCCN4CCOCC4)cc3)c2)c2c1CCN(C(=O)C(N)=O)C2 [Example 169, 4-{[5-(5-[Amino(oxo)acetyl]-1-{3-[(3S)-3-methylmorpholin-4-yl]propyl}-4,5,6,7-tetrahydro-1H-pyrazolo[4,3-c]pyridin-3-yl)-2-chlorophenyl]ethynyl}-N-(2-morpholin-4-ylethyl)benzamide] | – | 0.05
7 | NC(=O)N1CCc2c(c(-c3ccc(Cl)c(C#Cc4ccc(CNCc5ccc(Cl)cc5)cc4)c3)nn2CCCN2C[C@H]3COC[C@H]3C2)C1 [Example 170, 3-[4-Chloro-3-[(4-{[(4-chlorobenzyl)amino]methyl]phenyl)ethynyl]phenyl}-1-{3-[(3aR,6aS)-tetrahydro-1H-furo[3,4-c]pyrrol-5(3H)-yl]propyl}-1,4,6,7-tetrahydro-5H-pyrazolo[4,3-c]pyridine-5-carboxamide] | – | 0.05
8 | NC(=O)N1CCc2c(c(-c3ccc(Cl)c(C#Cc4cccc(CNCc5ccc(Cl)cc5)c4)c3)nn2CCCN2CCSCC2)C1 [Example 171, 3-(4-Chloro-3-{[3-({[(4-chlorophenyl)methyl]amino}methyl)phenyl]ethynyl}phenyl)-1-(3-thiomorpholin-4-ylpropyl)-1,4,6,7-tetrahydro-5H-pyrazolo[4,3-c]pyridine-5-carboxamide] | – | 0.2
9 | O=C(CO)N1CCc2c(c(-c3ccc(Cl)c(C#Cc4ccc(CNCc5ccc(Cl)cc5)cc4)c3)nn2CCCN2CCN(c3ccccc3)CC2)C1 [Example 172, 2-{3-(4-Chloro-3-{[4-({[(4-chlorophenyl)methyl]amino}methyl)phenyl]ethynyl}phenyl)-1-[3-(4-phenylpiperazin-1-yl)propyl]-1,4,6,7-tetrahydro-5H-pyrazolo[4,3-c]pyridin-5-yl}-2-oxoethanol] | – | 0.03
10 | Cc1ccc(CNCc2ccc(C#Cc3cc(-c4nn(CCCN5CCSCC5)c5c4CN(C(N)=O)CC5)ccc3Cl)cc2)cc1 [Example 173, 3-(4-Chloro-3-{[4-({[(4-methylphenyl)methyl]amino}methyl)phenyl]ethynyl}phenyl)-1-(3-thiomorpholin-4-ylpropyl)-1,4,6,7-tetrahydro-5H-pyrazolo[4,3-c]pyridine-5-carboxamide] | – | 0.12
11 | CC(C)Oc1ccc(CNCc2ccc(C#Cc3cc(-c4nn(CCCN5CCSCC5)c5c4CN(C(N)=O)CC5)ccc3Cl)cc2)cc1 [Example 174, 3-{4-Chloro-3-[(4-{[({4-[(1-methylethyl)oxy]phenyl}methyl)amino]methyl}phenyl)ethynyl]phenyl}-1-(3-thiomorpholin-4-ylpropyl)-1,4,6,7-tetrahydro-5H-pyrazolo[4,3-c]pyridine-5-carboxamide] | – | 0.27
12 | CN(C)c1ccc(CNCc2ccc(C#Cc3cc(-c4nn(CCCN5CCSCC5)c5c4CN(C(N)=O)CC5)ccc3Cl)cc2)cc1 [Example 175, 3-[4-Chloro-3-({4-[({[4-(dimethylamino)phenyl]methyl}amino)methyl]phenyl}ethynyl)phenyl]-1-(3-thiomorpholin-4-ylpropyl)-1,4,6,7-tetrahydro-5H-pyrazolo[4,3-c]pyridine-5-carboxamide] | – | 0.19
13 | NC(=O)N1CCc2c(c(-c3ccc(Cl)c(C#Cc4ccc(CNCc5ccc(OC(F)F)cc5)cc4)c3)nn2CCCN2CCSCC2)C1 [Example 176] | – | 0.23

More lines, main results first:

Row | IC50 [µM] | Structure (SMILES) | IC50 (CatS IC50) [µM]
14 | 0.05 | NC(=O)N1CCc2c(c(-c3ccc(Cl)c(C#Cc4ccc(CNCc5ccc(Cl)cc5)cc4)c3)nn2CCCN2CCN(c3ccccn3)CC2)C1 [Example 156, 3-(4-Chloro-3-{[4-({[(4-chlorophenyl)methyl]amino}methyl)phenyl]ethynyl}phenyl)-1-[3-(4-pyridin-2-ylpiperazin-1-yl)propyl]-1,4,6,7-tetrahydro-5H-pyrazolo[4,3-c]pyridine-5-carboxamide] | –
15 | 0.05 | C[C@H]1COCCN1CCCn1nc(-c2ccc(Cl)c(C#Cc3ccc(CNCc4ccc(Cl)cc4)cc3)c2)c2c1CCN(C(=O)C(N)=O)C2 [Example 158, 2-[3-(4-Chloro-3-{[4-({[(4-chlorophenyl)methyl]amino}methyl)phenyl]ethynyl}phenyl)-1-{3-[(3S)-3-methylmorpholin-4-yl]propyl}-1,4,6,7-tetrahydro-5H-pyrazolo[4,3-c]pyridin-5-yl]-2-oxoacetamide] | –
16 | 0.06 | NC(=O)C(=O)N1CCc2c(c(-c3ccc(Cl)c(C#Cc4ccc5c(c4)CN(Cc4ccc(Cl)cc4)CC5)c3)nn2CCCN2CCOCC2)C1 [Example 159, 2-{3-[4-Chloro-3-({2-[(4-chlorophenyl)methyl]-1,2,3,4-tetrahydroisoquinolin-7-yl}ethynyl)phenyl]-1-(3-morpholin-4-ylpropyl)-1,4,6,7-tetrahydro-5H-pyrazolo[4,3-c]pyridin-5-yl}-2-oxoacetamide] | –
17 | 0.06 | NC(=O)N1CCc2c(c(-c3ccc(Cl)c(C#Cc4ccc(CNCc5ccc(Cl)cc5)cc4)c3)nn2CCCN2CCSCC2)C1 [Example 160, 3-(4-Chloro-3-{[4-({[(4-chlorophenyl)methyl]amino}methyl)phenyl]ethynyl}phenyl)-1-(3-thiomorpholin-4-ylpropyl)-1,4,6,7-tetrahydro-5H-pyrazolo[4,3-c]pyridine-5-carboxamide] | –
18 | 0.07 | NC(=O)N1CCc2c(c(-c3ccc(Cl)c(C#Cc4ccc(COCc5cccnc5)cc4)c3)nn2CCCN2CCSCC2)C1 [Example 161, 3-{4-Chloro-3-[(4-{[(pyridin-3-ylmethyl)oxy]methyl]phenyl)ethynyl]phenyl}-1-(3-thiomorpholin-4-ylpropyl)-1,4,6,7-tetrahydro-5H-pyrazolo[4,3-c]pyridine-5-carboxamide] | –
19 | 0.09 | NC(=O)N1CCc2c(c(-c3ccc(Cl)c(C#Cc4ccc(C(=O)NCc5cccnc5)cc4)c3)nn2CCCN2CCSCC2)C1 [Example 162, 3-{4-Chloro-3-[(4-{[(pyridin-3-ylmethyl)amino]carbonyl}phenyl)ethynyl]phenyl}-1-(3-thiomorpholin-4-ylpropyl)-1,4,6,7-tetrahydro-5H-pyrazolo[4,3-c]pyridine-5-carboxamide] | –
20 | 0.83 | NC(=O)N1CCc2c(c(-c3ccc(Cl)c(C#Cc4ccc(CN5CCC(N6CCCC6=O)CC5)cc4)c3)nn2CCCN2CCSCC2)C1 [Example 165, 3-{4-Chloro-3-[(4-{[4-(2-oxopyrrolidin-1-yl)piperidin-1-yl]methyl}phenyl)ethynyl]phenyl}-1-(3-thiomorpholin-4-ylpropyl)-1,4,6,7-tetrahydro-5H-pyrazolo[4,3-c]pyridine-5-carboxamide] | –
21 | 2.52 | Clc1ccc(CNCc2ccc(C#Cc3cc(-c4nn(CCCN5CCOCC5)c5c4CNCC5)ccc3Cl)cc2)cc1 [Example 166, 1-[4-({2-Chloro-5-[1-(3-morpholin-4-ylpropyl)-4,5,6,7-tetrahydro-1H-pyrazolo[4,3-c]pyridin-3-yl]phenyl}ethynyl)phenyl]-N-[(4-chlorophenyl)methyl]methanamine] | –
22 | 0.03 | CCNCc1cc(C#Cc2cc(-c3nn(CCCN4CCCCC4)c4c3CN(C(N)=O)CC4)ccc2Cl)ccc1Cl [Example 167, 3-[4-Chloro-3-({4-chloro-3-[(ethylamino)methyl]phenyl}ethynyl)phenyl]-1-(3-piperidin-1-ylpropyl)-1,4,6,7-tetrahydro-5H-pyrazolo[4,3-c]pyridine-5-carboxamide] | –
23 | 0.01 | CS(=O)(=O)N1CCc2c(c(-c3ccc(Cl)c(C#Cc4ccc(CNCc5ccc(Cl)cc5)cc4)c3)nn2CCCN2CCC(c3ccccn3)CC2)C1 [Example 177, 1-{4-[(2-Chloro-5-{5-(methylsulfonyl)-1-[3-(4-pyridin-2-ylpiperidin-1-yl)propyl]-4,5,6,7-tetrahydro-1H-pyrazolo[4,3-c]pyridin-3-yl}phenyl)ethynyl]phenyl}-N-[(4-chlorophenyl)methyl]methanamine] | –
